In patent US20240208992A1, “MACROCYCLES AS CFTR MODULATORS” (Idorsia Pharmaceuticals Ltd, priority 2021, published 2024):

Target: human F508del-CFTR (Homo sapiens, UniProt P13569, DEL508-508)
Test: F508del-CFTR cell surface expression (corrector activity), DiscoveRx ß-galactosidase complementation chemiluminescence assay in recombinant U2OS cell line;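 also: U2OS cells co-expressing ProLink-tagged F508del-CFTR and a membrane-anchored enzyme acceptor, where more surface CFTR restores β-galactosidase activity measured by chemiluminescence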
Settings: for EC50: EC50, F508del-CFTR cell surface expression; for Emax: U2OS
[1] = U2OS cells, 16h compound incubation, geomean values
[2] = in relation to Emax of corrector lumacaftor (=100%), arithmetic mean values
[3] = U2OS cell line, 16h compound incubation, geomean values
[4] = in relation to the Emax of the corrector lumacaftor (=100%), U2OS cell line, 16h compound incubation, arithmetic mean values

Sequence of human F508del-CFTR (P13569 with tags, fused parts or gaps DEL508-508): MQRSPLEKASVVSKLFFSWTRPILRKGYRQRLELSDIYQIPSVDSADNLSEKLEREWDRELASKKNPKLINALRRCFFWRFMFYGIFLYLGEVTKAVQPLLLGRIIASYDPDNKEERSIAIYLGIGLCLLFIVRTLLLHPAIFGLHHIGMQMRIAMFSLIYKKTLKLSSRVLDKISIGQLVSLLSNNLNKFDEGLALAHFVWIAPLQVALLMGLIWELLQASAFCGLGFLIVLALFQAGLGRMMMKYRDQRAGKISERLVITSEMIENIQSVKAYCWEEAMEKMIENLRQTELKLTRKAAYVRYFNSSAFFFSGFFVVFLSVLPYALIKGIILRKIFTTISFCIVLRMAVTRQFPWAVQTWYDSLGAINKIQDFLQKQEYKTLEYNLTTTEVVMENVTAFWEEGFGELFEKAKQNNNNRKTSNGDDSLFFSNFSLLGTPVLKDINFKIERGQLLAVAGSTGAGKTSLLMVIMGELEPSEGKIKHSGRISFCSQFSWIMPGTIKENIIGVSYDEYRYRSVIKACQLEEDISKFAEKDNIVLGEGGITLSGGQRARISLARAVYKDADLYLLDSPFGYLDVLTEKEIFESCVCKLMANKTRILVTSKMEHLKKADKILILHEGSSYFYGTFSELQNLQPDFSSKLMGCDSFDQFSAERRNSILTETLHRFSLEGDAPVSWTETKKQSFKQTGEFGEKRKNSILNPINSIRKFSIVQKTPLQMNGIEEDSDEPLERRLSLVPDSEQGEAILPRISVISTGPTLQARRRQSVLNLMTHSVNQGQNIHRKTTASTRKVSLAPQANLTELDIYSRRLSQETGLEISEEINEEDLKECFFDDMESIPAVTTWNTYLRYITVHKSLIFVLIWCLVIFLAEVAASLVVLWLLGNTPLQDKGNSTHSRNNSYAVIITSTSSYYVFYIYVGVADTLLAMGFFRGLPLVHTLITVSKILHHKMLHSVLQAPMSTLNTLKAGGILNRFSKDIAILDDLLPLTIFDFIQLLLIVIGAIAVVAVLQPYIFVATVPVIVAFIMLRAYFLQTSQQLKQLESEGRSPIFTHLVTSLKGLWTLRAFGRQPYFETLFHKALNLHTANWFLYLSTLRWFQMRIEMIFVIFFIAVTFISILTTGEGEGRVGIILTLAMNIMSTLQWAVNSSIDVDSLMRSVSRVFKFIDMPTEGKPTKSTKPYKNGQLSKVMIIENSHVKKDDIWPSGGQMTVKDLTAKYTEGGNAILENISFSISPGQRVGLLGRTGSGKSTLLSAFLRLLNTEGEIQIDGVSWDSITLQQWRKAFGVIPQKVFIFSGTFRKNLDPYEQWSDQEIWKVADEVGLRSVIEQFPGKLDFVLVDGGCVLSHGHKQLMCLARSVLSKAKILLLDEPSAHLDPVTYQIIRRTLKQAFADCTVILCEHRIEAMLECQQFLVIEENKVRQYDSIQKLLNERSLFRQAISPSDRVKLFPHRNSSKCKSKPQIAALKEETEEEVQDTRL

Row | Structure (SMILES) | EC50 [1] | Emax [2] | EC50 [3] | Emax [4] | further results
1 | CC(C)C[C@H]1C(=O)N(C)[C@H](C)C(=O)N[C@H](Cc2ccccc2)COc2cnc3ccccc3c2C(=O)N[C@H](C(=O)NCCc2cc(C3CC3)no2)CC(=O)N1C [Example 574, (3S,7S,10R,13R)-13-benzyl-N-(2-(3-cyclopropylisoxazol-5-yl)ethyl)-7-isobutyl-6,9,10-trimethyl-1,5,8,11-tetraoxo-1,2,3,4,5,6,7,8,9,10,11,12,13,14-tetradecahydro-[1]oxa[4,7,10,14]tetraazacycloheptadecino[17,16-c]quinoline-3-carboxamide] | 308 nM | 319% |  |  | 
2 | CC(C)C[C@H]1C(=O)N(CCCc2ccccc2)CC(=O)N[C@H](Cc2ccccc2)COc2ccc3ccccc3c2C(=O)N[C@H](C(=O)NCCc2ccc3c(c2)OCO3)CC(=O)N1C [Example 626, (3S,7S,13R)-N-(2-(benzo[d][1,3]dioxol-5-yl)ethyl)-13-benzyl-7-isobutyl-6-methyl-1,5,8,11-tetraoxo-9-(3-phenylpropyl)-1,2,3,4,5,6,7,8,9,10,11,12,13,14-tetradecahydronaphtho[1,2-p][1]oxa[4,7,10,14]tetraazacycloheptadecine-3-carboxamide] | 163 nM | 253% |  |  | 
3 | COc1cccc(CCNC(=O)[C@@H]2CC(=O)N(C)[C@@H](CC3CCCCC3)C(=O)N(C[C@@H]3CCCCO3)CC(=O)N[C@H](Cc3ccccc3)COc3ccc4ccccc4c3C(=O)N2)c1 (racemic) [Example 294, (3RS,7S,13R)-13-benzyl-7-(cyclohexylmethyl)-N-(3-methoxyphenethyl)-6-methyl-1,5,8,11-tetraoxo-9-(((S)-tetrahydro-2H-pyran-2-yl)methyl)-1,2,3,4,5,6,7,8,9,10,11,12,13,14-tetradecahydronaphtho[1,2-p][1]oxa[4,7,10,14]tetraazacycloheptadecine-3-carboxamide] |  |  | 265 nM | 138% | 
4 | CC(C)C[C@H]1C(=O)N(CCC(C)(C)C)CC(=O)N[C@H](Cc2ccccc2)COc2cc3c(cc2C(=O)N[C@H](C(=O)NCCc2ccc4c(c2)OCO4)CC(=O)N1C)OCO3 (racemic) [Example 1, (7R,13S,17RS)-N-(2-(benzo[d][1,3]dioxol-5-yl)ethyl)-7-benzyl-11-(3,3-dimethylbutyl)-13-isobutyl-14-methyl-9,12,15,19-tetraoxo-6,7,8,9,10,11,12,13,14,15,16,17,18,19-tetradecahydro-[1,3]dioxolo[4′,5′:4,5]benzo[1,2-p][1]oxa[4,7,10,14]tetraazacycloheptadecine-17-carboxamide] |  |  | 56 nM | 105% | 
5 | COc1cccc(CCNC(=O)[C@@H]2CC(=O)N(C)[C@@H](CC(C)C)C(=O)N(C)CC(=O)N[C@H](Cc3ccccc3)COc3ccc(OC)cc3C(=O)N2)c1 [Example 231, (3R,9S,13S)-3-benzyl-9-isobutyl-17-methoxy-N-(3-methoxyphenethyl)-7,10-dimethyl-5,8,11,15-tetraoxo-2,3,4,5,6,7,8,9,10,11,12,13,14,15-tetradecahydrobenzo[p][1]oxa[4,7,10,14]tetraazacycloheptadecine-13-carboxamide] |  |  | 592 nM | 173% | 
6 | COc1cc(CCNC(=O)[C@@H]2CC(=O)N(C)[C@@H](CC(C)C)C(=O)N(C)[C@H](CC(F)F)C(=O)N[C@H](Cc3ccccc3)COc3cc(C)nc(OC)c3C(=O)N2)on1 [Example 785, (3R,6R,9S,13S)-3-benzyl-6-(2,2-difluoroethyl)-9-isobutyl-16-methoxy-N-(2-(3-methoxyisoxazol-5-yl)ethyl)-7,10,18-trimethyl-5,8,11,15-tetraoxo-2,3,4,5,6,7,8,9,10,11,12,13,14,15-tetradecahydropyrido[3,4-p][1]oxa[4,7,10,14]tetraazacycloheptadecine-13-carboxamide] | 210 nM | 365% |  |  | 
7 | COc1cc(CCNC(=O)[C@@H]2CC(=O)N(C)[C@@H](CC(C)C)C(=O)N(C)[C@@H](CC(F)(F)F)C(=O)N[C@H](Cc3ccccc3)COc3cc(C)nc(OC)c3C(=O)N2)on1 [Example 792, (3R,6S,9S,13S)-3-benzyl-9-isobutyl-16-methoxy-N-(2-(3-methoxyisoxazol-5-yl)ethyl)-7,10,18-trimethyl-5,8,11,15-tetraoxo-6-(2,2,2-trifluoroethyl)-2,3,4,5,6,7,8,9,10,11,12,13,14,15-tetradecahydropyrido[3,4-p][1]oxa[4,7,10,14]tetraazacycloheptadecine-13-carboxamide] | 628 nM | 261% |  |  | 
8 | COc1cccc(CCNC(=O)[C@@H]2CC(=O)N(C)[C@@H](CC(C)C)C(=O)N(CCC3CCCCC3)CC(=O)N[C@H](Cc3ccccc3)COc3cc(OC)cc(OC)c3C(=O)N2)c1 [Example 256, (3R,9S,13S)-3-benzyl-7-(2-cyclohexylethyl)-9-isobutyl-16,18-dimethoxy-N-(3-methoxyphenethyl)-10-methyl-5,8,11,15-tetraoxo-2,3,4,5,6,7,8,9,10,11,12,13,14,15-tetradecahydrobenzo[p][1]oxa[4,7,10,14]tetraazacycloheptadecine-13-carboxamide] |  |  | 147 nM | 319% | 
9 | CC(C)C[C@H]1C(=O)N(CCC2CCCCC2)CC(=O)N[C@H](Cc2ccccc2)COc2ccc(Cl)cc2C(=O)N[C@H](C(=O)NCCc2ccc3c(c2)OCO3)CC(=O)N1C [Example 253, (3R,9S,13S)-N-(2-(benzo[d][1,3]dioxol-5-yl)ethyl)-3-benzyl-17-chloro-7-(2-cyclohexylethyl)-9-isobutyl-10-methyl-5,8,11,15-tetraoxo-2,3,4,5,6,7,8,9,10,11,12,13,14,15-tetradecahydrobenzo[p][1]oxa[4,7,10,14]tetraazacycloheptadecine-13-carboxamide] |  |  | 88 nM | 136% | 
10 | COCCn1cc(CCNC(=O)[C@@H]2CC(=O)N(C)[C@@H](CC(C)C)C(=O)N(C)[C@H](Cc3nc(C(F)(F)F)no3)C(=O)N[C@H](Cc3ccccc3)COc3ccc4ncc(F)cc4c3C(=O)N2)cn1 [Example 962, (3S,7S,10R,13R)-13-benzyl-20-fluoro-7-isobutyl-N-(2-(1-(2-methoxyethyl)-1H-pyrazol-4-yl)ethyl)-6,9-dimethyl-1,5,8,11-tetraoxo-10-((3-(trifluoromethyl)-1,2,4-oxadiazol-5-yl)methyl)-1,2,3,4,5,6,7,8,9,10,11,12,13,14-tetradecahydro-[1]oxa[4,7,10,14]tetraazacycloheptadecino[16,17-f]quinoline-3-carboxamide] |  |  |  |  | EC50 (U2OS cells, 16h compound incubation, geomean of several measurements): 103 nM; Emax (in relation to the Emax of the corrector lumacaftor (=100%), U2OS cells, 16h compound incubation, arithmetic mean): 453%
11 | COc1cccc(CCNC(=O)[C@@H]2CC(=O)N(C)[C@@H](CC(C)C)C(=O)N(CCC3CCCCC3)CC(=O)N[C@H](Cc3ccccc3)COc3cnc4ccccc4c3C(=O)N2)c1 [Example 315, (3S,7S,13R)-13-benzyl-9-(2-cyclohexylethyl)-7-isobutyl-N-(3-methoxyphenethyl)-6-methyl-1,5,8,11-tetraoxo-1,2,3,4,5,6,7,8,9,10,11,12,13,14-tetradecahydro-[1]oxa[4,7,10,14]tetraazacycloheptadecino[17,16-c]quinoline-3-carboxamide] |  |  | 115 nM | 349% | 
12 | CN1C(=O)C[C@@H](C(=O)NCCc2ccc3c(c2)OCO3)NC(=O)c2c(ccc3ccccc23)OC[C@@H](Cc2ccccc2)NC(=O)CN(CC[C@@H]2CCCCO2)C(=O)[C@@H]1CC1CCC1 [Example 360, (3S,7S,13R)-N-(2-(benzo[d][1,3]dioxol-5-yl)ethyl)-13-benzyl-7-(cyclobutylmethyl)-6-methyl-1,5,8,11-tetraoxo-9-(2-((S)-tetrahydro-2H-pyran-2-yl)ethyl)-1,2,3,4,5,6,7,8,9,10,11,12,13,14-tetradecahydronaphtho[1,2-p][1]oxa[4,7,10,14]tetraazacycloheptadecine-3-carboxamide] |  |  | 184 nM | 224% | 
13 | COc1cc2c(cc1OC)C(=O)N[C@H](C(=O)NCCc1ccc3c(c1)OCO3)CC(=O)N(C)[C@@H](CC(C)C)C(=O)N(CC[C@H]1CCCCO1)CC(=O)N[C@H](Cc1ccccc1)CO2 (racemic) [Example 155, (3R,9S,13S)-N-(2-(benzo[d][1,3]dioxol-5-yl)ethyl)-3-benzyl-9-isobutyl-17,18-dimethoxy-10-methyl-5,8,11,15-tetraoxo-7-(2-((RS)-tetrahydro-2H-pyran-2-yl)ethyl)-2,3,4,5,6,7,8,9,10,11,12,13,14,15-tetradecahydrobenzo[p][1]oxa[4,7,10,14]tetraazacycloheptadecine-13-carboxamide] |  |  | 260 nM | 144% | 
14 | CC(C)C[C@H]1C(=O)N(C)C2(CC2)C(=O)N[C@H](Cc2ccccc2)COc2cnc3ccccc3c2C(=O)N[C@H](C(=O)NCCc2cc(F)cc(F)c2)CC(=O)N1C [Example 120, (3′S,7′S,13′R)-13′-benzyl-N-(3,5-difluorophenethyl)-7′-isobutyl-6′,9′-dimethyl-1′,5′,8′,11′-tetraoxo-2′,3′,4′,5′,6′,7′,8′,9′,11′,12′,13′,14′-dodecahydro-1′H-spiro[cyclopropane-1,10′-[1]oxa[4,7,10,14]tetraazacycloheptadecino[17,16-c]quinoline]-3′-carboxamide] |  |  | 331 nM | 212% | 
15 | COc1nc(C)cc2c1C(=O)N[C@H](C(=O)NCCc1cc(C(F)(F)F)no1)CC(=O)N(C)[C@@H](CC(C)C)C(=O)N1CCCC[C@H]1C(=O)N[C@H](Cc1ccccc1)CO2 [Example 667, (7S,11S,17aS,20R)-20-benzyl-11-isobutyl-4-methoxy-2,10-dimethyl-5,9,12,18-tetraoxo-N-(2-(3-(trifluoromethyl)isoxazol-5-yl)ethyl)-5,6,7,8,9,10,11,12,15,16,17,17a,18,19,20,21-hexadecahydro-14H-dipyrido[2,1-f:3′,4′-p][1]oxa[4,7,10,14]tetraazacycloheptadecine-7-carboxamide] | 764 nM | 149% |  |  | 
